Experiment: pKa determination of E-P a-dH+ by UV-Vis titration
Format: physicochemical
Settings: acidity constant of the cationic E form, water, 20 mM phosphate buffer, 298 K, triplicate
Excerpt: With the photovermellogens synthesized and fully characterized, their acid–base properties were next investigated by UV–vis spectroscopy to determine whether the pH-responsiveness characteristic of parent vermellogens was retained. Indeed, P a–dH·Cl reproduced the archetypical absorption changes of vermellogens (Figures c and S130–S137, SI1). , In essence, the characteristic intense π–π* absorption bands of the cations undergo a considerable bathochromic shift upon deprotonation (Table ), as also confirmed by our quantum chemical calculations (Figure S2, S2), causing a notable color change from yellow to red. This pronounced shift allowed the estimation of pK a values for E-P a–dH^+ via UV–vis absorption titrations, which, as for other vermellogens, fall within the biologically relevant pH range (Figure c, Table and Figures S130–S137, SI1). Changes in the protonation state were also easily monitored by ^1H NMR spectroscopy, with the gain in electronic density translating in a substantial shielding of resonances of the corresponding conjugate bases E/Z-P a–d (Figure a). As already observed for E-P a–dH^+, the deprotonated species were also thermally stable in the absence of light.
4. Determination of pK a values for E-P a-dH+ by UV-Vis spectroscopy.
All the experiments were recorded on a Jasco V-650 spectrometer. […] Considering the previously reported behaviour of vermellogens,5 UV-Vis spectra were initially recorded in the 4-12 pH range, to qualitatively determine in each case the presence or absence of characteristic absorption bands for the acidic-basic forms of the compounds. From the qualitative data, UV-Vis titrations were recorded in the appropriate pH range for each […]
Figure S132. UV-Vis spectra of P bH·Cl at pH 5 (black) and pH 12 (red) at 20 µM. b) Linear relationship at pH 5 between absorbance at 378 nm and concentration of P bH·Cl (ε = 42265 ± 838 L·mol -1·cm-1). c) Linear relationship at pH 12 between absorbance at 456 nm and concentration of P bH·Cl (ε = 42143 ± 1044 L·mol -1·cm-1). […]
Figure S134. UV-Vis spectra of P cH·Cl at pH 6 (black) and pH 12 (red) at 14 µM. b) Linear relationship at pH 6 between absorbance at 350 nm and concentration of P cH·Cl (ε = 49266 ± 1780 L·mol-1·cm-1). c) Linear relationship at pH 12 between absorbance at 433 nm and concentration of P cH·Cl (ε = 46382 ± 1667 L·mol -1·cm-1). […]
Figure S136. UV-Vis spectra of P dH·Cl at pH 6 (red) and pH 13 (black) at 11 µM. b) Linear relationship at pH 6 between absorbance at 411 nm and concentration of P dH·Cl (ε = 65691 ± 2966 L·mol-1·cm-1). c) Linear relationship at pH 13 between absorbance at 500 nm and concentration of P dH·Cl (ε = 69154 ± 3100 L·mol -1·cm-1). […]

Compound	pK a (E-PH^+)
C[n+]1ccc(NN=CC(=O)c2ccccc2)cc1 [P aH^+]	8.8 ± 0.2
C[n+]1ccc(NN=CC(=O)c2ccccc2)c2ccccc21 [P bH^+]	7.2 ± 0.1
O=C(C=NNc1cc[n+](-c2ccccc2)cc1)c1ccccc1 [P cH^+]	7.8 ± 0.1
C[n+]1ccc(-c2ccc(NN=CC(=O)c3ccccc3)cc2)cc1 [P dH^+]	11.2 ± 0.1
